Reference: patent US20110201648A1, “POLY-HETEROARYL DERIVATIVES FOR THE TREATMENT OF CANCER” (INSTITUT CURIE, priority 2008, published 2011)

Tested on: 22AG quadruplex-DNA
Assay: Circular dichroism with 22AG
Assay type: binding, human
Description: Circular dichroism (CD) enables a deep study of the modification of the DNA structure upon the binding of a ligand; it thus reflects the affinity of the ligand to its target, and can also provide insight into its binding mode (Paramasivan et al, Methods, 2007, 43, 324).
The quadruplex-DNA used herein is 22AG (see above), annealed both in a 10 mM sodium cacodylate buffer pH 7.2, 100 mM NaCl (for 22AG Na) or KCl (for 22AG K). To a 3 μM solution of 22AG in both buffers is added an excess of compound 3 (30 μM, 10 equiv.).
The equilibrium between folded and unfolded forms of 22AG oligonucleotide is highly sensitive to the presence and the nature of the buffer it is used in. In low cationic buffer like 10 mM Tris.HCl, pH 7.2, 22AG is mostly unfolded (random coiled); it is thus possible to influence the folded <-> unfolded equilibrium by adding compound 3. Thus, to a 3 μM solution of random coiled 22AG in Tris.HCl buffer are added increasing amounts of compound 3 (from 0 to 7.5 equiv.); it results in a deep modification of the CD signal of 22AG, with a disappearance of the random coiled-typical 257 nm signal to the benefit of two novel maxima, one positive (near 290 nm) and one negative (near 265 nm), both being typical of the CD signature of ‘anti-parallel’ quadruplex-DNA structure (as 22AG Na, see above).

Compound: c1cc(-c2cnc(-c3cccc(-c4cnco4)n3)o2)nc(-c2cnc(-c3cccc(-c4cnco4)n3)o2)c1 [compound 3, 2,6-bis{2-[6-(oxazol-5-yl)pyridin-2-yl]oxazol-5-yl}pyridine]
- CD signal of 22AG K (3 μM 22AG, 30 μM compound (10 equiv.), 100 mM KCl, 263 nm): reorganises completely the structure
- CD signal of 22AG Na (3 μM 22AG, 30 μM compound (10 equiv.), 100 mM NaCl, 263 nm): modification of the amplitude of the CD signal
- quadruplex-structure induction (folded/unfolded equilibrium of 22AG) (3 μM random coiled 22AG in 10 mM Tris.HCl pH 7.2, 0 to 7.5 equiv. compound): able to shift the equilibrium between the unfolded and the folded form of 22AG toward the folded one
